Peptide text beside a SMILES is read from it.
Experiments:
[1] = in terms of weight ratio; cited from earlier work
[2] = Dissolution time in water, elution tester (Japanese Pharmacopoeia paddle method); assay type: physicochemical
Experimental: (Dissolution rate of raw (original) powders each from NM C-type crystals and APM, and a mixture thereof) A predetermined amount of the sample was introduced into 900 ml water (20° C.) in a 1-L elution tester (the Japanese Pharmacopoeia, Paddle method, 100 rpm) and its dissolution time was measured (end point was visually confirmed).
Specifically, 1 g of sample taken from each mixture consisting of NM C-type crystal raw powder (average particle size of about 100 μm) and APM raw powder (average particle size of about 15 μm, IB-type bundled crystals) at the predetermined various ratios (APM content (% by weight)) shown in Table 1 below, was weighed, and then measured for its dissolution time. For comparison, 1.00 g, 0.90 g, 0.50 g, 0.10 g, 0.03 g, and 0.005 g samples were taken from said NM raw powder, and then their dissolution times were determined in the same manner as above. For the same purpose, 1.00 g, 0.97 g, 0.90 g, 0.50 g, and 0.10 g samples were taken from said APM raw powder, and then their dissolution times were determined in the same manner. […]

[3] = 0.10 g sample alone in 900 ml water, 20° C., paddle 100 rpm
[4] = 0.50 g sample alone in 900 ml water, 20° C., paddle 100 rpm
[5] = 0.90 g sample alone in 900 ml water, 20° C., paddle 100 rpm
[6] = 1.00 g sample alone in 900 ml water, 20° C., paddle 100 rpm, end point visual
[7] = 0.03 g sample alone in 900 ml water, 20° C., paddle 100 rpm
[8] = 0.51 g of NM alone (same sweetness as 1 g mixture containing 50% APM)

Row | Structure (SMILES) | sweetness strength [1] | Dissolution time [2, 3] [min] | Dissolution time [2, 4] [min] | Dissolution time [2, 5] [min] | Dissolution time ([2]; 0.97 g sample alone in 900 ml water, 20° C., paddle 100 rpm) [min] | Dissolution time [2, 6] [min] | Dissolution time [2, 7] [min] | Dissolution time [2, 8] | Dissolution time ([2]; 0.005 g sample alone in 900 ml water, 20° C., paddle 100 rpm) [min] | Dissolution time ([2]; 0.5 g alone, 900 ml water, 20° C.) [min]
1 | COC(=O)[C@H](Cc1ccccc1)NC(=O)[C@@H](N)CC(=O)O [APM, Aspartame] (H-Asp-Phe-OMe) | about 200 times that of sucrose | 10 | 20 | 27 | 29 | 30 |  |  |  | 
2 | COC(=O)[C@H](Cc1ccccc1)NC(=O)[C@H](CC(=O)O)NCCC(C)(C)C [NM] | about 10,000 times that of sucrose |  |  |  |  |  |  |  |  | 
3 | COC(=O)[C@H](Cc1ccccc1)NC(=O)[C@H](CC(=O)O)NCCC(C)(C)C [NM A-type crystals, N-{N-(3,3-dimethylbutyl)-L-α-aspartyl}-L-phenylalanine 1-methyl ester] |  | 16 | 35 | 40 |  | 42 | 10 | about 35 minutes |  | 
4 | COC(=O)[C@H](Cc1ccccc1)NC(=O)[C@H](CC(=O)O)NCCC(C)(C)C [NM C-type crystals, N-{N-(3,3-dimethylbutyl)-L-α-aspartyl}-L-phenylalanine 1-methyl ester] |  | 40 | 55 | 60 |  | 62 | 30 | about 55 minutes | 4 | 55

— US6372278B1, “Sweetener composition” (Ajinomoto Co., Inc., priority 1998, dated 2002)
